These results are taken from US20170166558A1, “O-GLCNAC TRANSFERASE (OGT) INHIBITORS AND USES THEREOF” (President and Fellows of Harvard College, priority 2014, published 2017).

Molecules are shown by their SMILES. Values joined by “and” are separate entries in the source; they are usually repeats but may differ in a detail not shown here. Identical values can stand only once.

The target of one series is T1, sOGT (Homo sapiens, UniProt O15294).
T1 sequence (O15294 1-665 isoform O15294-4): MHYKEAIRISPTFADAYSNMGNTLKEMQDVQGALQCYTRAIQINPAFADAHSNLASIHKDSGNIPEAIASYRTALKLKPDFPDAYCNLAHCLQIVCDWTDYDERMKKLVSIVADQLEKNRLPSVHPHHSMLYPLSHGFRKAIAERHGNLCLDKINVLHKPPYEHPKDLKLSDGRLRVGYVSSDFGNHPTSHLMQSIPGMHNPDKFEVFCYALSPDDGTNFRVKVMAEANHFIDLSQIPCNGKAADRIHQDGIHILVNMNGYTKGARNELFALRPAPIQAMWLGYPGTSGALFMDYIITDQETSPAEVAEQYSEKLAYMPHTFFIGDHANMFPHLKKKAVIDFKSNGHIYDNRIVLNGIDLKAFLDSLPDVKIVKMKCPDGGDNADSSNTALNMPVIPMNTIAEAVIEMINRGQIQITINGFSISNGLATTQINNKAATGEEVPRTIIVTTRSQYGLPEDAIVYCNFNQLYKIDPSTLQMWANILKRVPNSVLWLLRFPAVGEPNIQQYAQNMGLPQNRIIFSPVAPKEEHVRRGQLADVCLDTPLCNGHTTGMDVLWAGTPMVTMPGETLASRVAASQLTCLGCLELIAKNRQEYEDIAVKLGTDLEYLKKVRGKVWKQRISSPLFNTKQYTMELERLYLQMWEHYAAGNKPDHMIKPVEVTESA
The series can be described thus: Fluorescence polarization displacement screen with fluorescein-linked UDP-GlcNAc analog. The class given is binding. Conditions: fluorescence displacement in vitro assay; for IC50: read-out: IC50 (sOGT inhibition). As to the method:
About 1000 compound library was serially diluted in DMSO from the 5 mg/ml plates fivefold 3 times, such that 4 different concentrations of compounds were prepared. Compound libraries of the 4 concentrations in duplicated were then transferred to the assay plates using a 100 nL pin array, resulting in a final compound concentration of 25 μg/mL or ˜70 μM at the highest of the four concentrations, assuming an average compound MW of 350. Using a Perkin Elmer Envision® microplate reader, the sample was excited at 480 nm in the vertical plane, and simultaneous emission intensity (535 nm) of the vertical and horizontal polarization planes was measured. The polarization was calculated using the following equation:eq4: mP=1000*(V−G*H)/(V+G*H)where: mP=millipolarization units, V=intensity of vertically polarized emission (RFU), H=intensity of horizontally polarized emission (RFU), and G=gain.
Compounds were screened at […] different concentrations in a fluorescence displacement assay (FIG. 13A)^27. Using the known binding constant for the substrate analog, the dose-response data allowed us to estimate binding affinities (Ki values) for the hits. […] Various analogs were prepared based on a modular assembly (as in FIG. 13B), and OGT inhibition was assessed both in vitro and in cells.

The test system of a further series is CHO cells. The series can be described thus: ApoTox-Glo cell viability, cytotoxicity and apoptosis signaling assay. The class given is cell-based, Chinese hamster. As to the method:
Cell viability, cytotoxicity and apoptosis signaling assays were performed in a 96-well plate using ApoTox-Glo reagent (Promega) according to the manufacturer's instructions.

A further series deals with OGT in CHO cells. The series can be described thus: Immunoblotting of global O-GlcNAcylation (RL2) in CHO cells. It counts as cell-based, Chinese hamster. The settings on record: 24 hours, up to 50 μM. The method, then:
In vivo inhibition of glycosylation: For all immunoblotting experiments, CHO-K1 (CHO) cells were grown in F12-K media supplemented with 10% FBS and antibiotics at 37° C. in a 5% CO2 incubator. Cells were treated by adding indicated inhibitor in DMSO vehicle (0.5% final vehicle concentration) upon reaching 70% confluence. After indicated treatment length, cells were harvested by aspirating growth media and washing with ice cold 1× PBS. Cells were subsequently lysed in boiling 1% SDS/20 mM HEPES 7.9. After cooling to room temperature, 1 mM PMSF, 10 μM PUGNAC, 10 μM TMG and 1× Complete protease inhibitor cocktail were added to the solution. The mixture was sonicated and then subjected to a 5 minute incubation at 95° C. The samples were centrifuged for 15 minutes at 20,000×g and the supernatant was collected and the total protein was measured by BCA assay (BIO-RAD).
The sample was separated by SDS-PAGE (Bio-Rad 4-15%, Cat: 345-0028), transferred to a nitrocellulose membrane (iBlot, Invitrogen) and probed with the indicated antibody. Tyipcally, membranes were blocked with 4% BSA in 1× TBS+0.04% tween-20 for 1 hour before incubating with antibody (typically diluted 1:1000 in 4% BSA inlx TBS+0.04% tween-20) overnight at 4° C. Membranes were then washed three times with 1× TBS+0.04% tween-20 and incubated with secondary antibody (typically diluted 1:5000 in 4% BSA in 1× TBS+0.04% tween-20) for 1 hour at room temperature. Lastly, membranes were washed 3× with 1× TBS+0.04% tween-20 and imaged with ECL. D283-Med cells were treated as above but grown in F12-K media supplemented with 10% FBS and antibiotics. HEK, HeLa and LNCaP cells were treated as above but grown in RPMI media supplemented with 10% FBS and antibiotics.

For the next series, the target named is T2, ncOGT (Homo sapiens, UniProt O15294).
T2 construct: full length human OGT (ncOGT); made in house
T2 sequence (O15294 1-1046): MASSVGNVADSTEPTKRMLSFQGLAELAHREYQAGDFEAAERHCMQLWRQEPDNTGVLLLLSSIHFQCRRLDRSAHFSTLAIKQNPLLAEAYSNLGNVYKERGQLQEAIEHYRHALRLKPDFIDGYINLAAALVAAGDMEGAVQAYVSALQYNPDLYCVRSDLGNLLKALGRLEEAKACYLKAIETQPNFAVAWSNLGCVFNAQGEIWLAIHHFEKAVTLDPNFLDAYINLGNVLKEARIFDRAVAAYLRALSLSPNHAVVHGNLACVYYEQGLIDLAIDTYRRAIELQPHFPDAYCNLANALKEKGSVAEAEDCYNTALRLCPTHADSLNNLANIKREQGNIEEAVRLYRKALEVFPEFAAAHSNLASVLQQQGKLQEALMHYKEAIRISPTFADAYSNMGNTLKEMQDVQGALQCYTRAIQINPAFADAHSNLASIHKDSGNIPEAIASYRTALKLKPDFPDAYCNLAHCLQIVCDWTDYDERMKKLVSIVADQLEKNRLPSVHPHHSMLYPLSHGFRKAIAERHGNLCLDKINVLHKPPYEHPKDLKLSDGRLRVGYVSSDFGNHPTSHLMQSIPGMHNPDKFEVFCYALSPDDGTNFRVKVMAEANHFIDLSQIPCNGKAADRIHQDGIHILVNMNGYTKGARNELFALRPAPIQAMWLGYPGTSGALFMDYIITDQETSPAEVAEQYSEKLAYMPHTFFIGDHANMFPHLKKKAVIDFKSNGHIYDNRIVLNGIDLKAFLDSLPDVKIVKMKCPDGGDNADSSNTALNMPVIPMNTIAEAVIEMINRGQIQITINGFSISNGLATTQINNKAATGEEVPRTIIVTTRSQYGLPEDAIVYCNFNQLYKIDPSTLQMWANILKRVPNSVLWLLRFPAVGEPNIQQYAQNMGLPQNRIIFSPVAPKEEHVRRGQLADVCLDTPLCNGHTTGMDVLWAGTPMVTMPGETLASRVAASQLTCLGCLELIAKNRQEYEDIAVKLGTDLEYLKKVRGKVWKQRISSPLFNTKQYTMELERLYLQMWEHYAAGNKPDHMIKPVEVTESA
The series can be described thus: Radiometric capture assay with Nup62 acceptor and UDP-14C-GlcNAc. It counts as biochemical. As to the method: Radiometric capture assay: Nucleoporin 62 (Nup62) was used as a model substrate. IC50 values of the both inhibitors were determined at range of 0 to 100 μM (eight point, duplicate). OGT antagonists were tested in a reaction mixture containing 18 μM Nup62, 6 μM UDP-^14C-GlcNAc, 100 nM ncOGT, and lx phosphate-buffered saline (1× PBS) (137 mM NaCl, 2.7 mM KCl, 10 mM Na2HPO4, and 1.8 mM KH2PO4, pH 7.4). The Nup62 glycosylation reactions were run for 15 min at 37° C. Reaction mixtures were subsequently quenched by spottinged on Whatman® Protran® nitrocellulose membrane, washed with 1× PBS three times for 15 minutes each. The membranes were air dried and then counted by liquid scintillation counting. The data were analyzed by Microsoft® Excel and Prism 6 (Graphpad®). Robust non-linear variable slope regressions were generated to determine the IC50 and Hill slope values.
In order to evaluate the mode of inhibition of OSMI-1 and UDP-5S-GlcNAc, a series of experiments, as outlined above, were performed with Nup62 as glycosylation substrate. The inhibition test of OSMI-1 was performed by varying the UDP-^14C-GlcNAc concentration from 0 to 0.25 mM while holding concentration of Nup62 constant at 10 μM with four different concentrations of OSMI-1 (0 to 2 μM) in 1× PBS with 100 nM ncOGT and with fixed and saturating concentrations of GST-Nup62 acceptor. The inhibition test of UDP-5S-GlcNAc was performed by varying the UDP-^14C-GlcNAc concentration from 0 to 1 mM while holding concentration of Nup62 constant at 10 μM with five different concentrations of UDP-5S-GlcNAc (0, 1, 5, 10, and 15 μM) in 1× PBS with 100 nM ncOGT. Each reaction was spotted on Whatman® grade P81 ion exchange chromatography paper circles, washed with 1× PBS three times for 15 minutes each. The membranes were air dried and then counted by liquid scintillation counting. Each assay was duplicated in parallel. The data were analyzed by Microsoft® Excel and Prism 6 (Graphpad®). The Michaelis-Menten plots and Ki of both inhibitors calculated under non-linear regression with competitive inhibition mode are shown in FIG. 5.

The target in series [1] is T3, full length human OGT (ncOGT) (Homo sapiens, UniProt O15294).
T3 construct: made in house
T3 sequence (O15294 1-1046): T2 sequence (O15294 1-1046)
Kind of series: UDP-Glo luminescence-based coupled enzyme assay. It counts as biochemical. The settings on record: 40 μM UDP-GlcNAc, 125 μM CKII3K peptide; read-out: IC50 against ncOGT, coupled enzyme assay. The method, then:
UDP-Glo assay: Materials for this assay were obtained from Promega (catalog #V6961), and the experiment was performed largely as outlined by the manufacturer. IC50 values were determined in the range of 0 to 100 μM (eleven concentration points). Assays were performed either in white, 96-well or ½-volume 96-well, plates. This assay was run with 125 μM CKII3K peptide acceptor. Reaction volumes were between 14 (half volume plates) and 20 (normal volume plates) μL. Reactions contained the following components: 300 nM ncOGT, 125 μM CKII3K and 40 μM UDP-GlcNAc in 1× PBS pH 7.4 supplemented with 1 mM THP. Reactions were incubated for one hour at 25° C. and quenched by the addition of an equal volume of UDP-Glo nucleotide detection reagent, prepared and used according to manufacturer guidelines. The quenched reactions were then mixed briefly by shaking at 1800 rpm in a Thermomixer C, and incubated for one hour at room temperature prior to reading luminescence, as per the manufacturers guidelines. Data were analyzed by Microsoft Excel and Prism 6 (Graphpad). When evaluating the effect of sugar donor concentration, this parameter was varied, while all other conditions remained as described above. Each sample in this case was run in duplicate, unless otherwise specified. The 40 μM curve in FIG. 16C has each point in quadruplicate. Similarly, there is an n=9 for each point in the OSMI-1 curve in FIG. 16B.

As a reminder, the IC50 is the point on the concentration scale where inhibition reaches its midpoint. On to `CC(C)N(Cc1ccccc1)C(=O)[C@H](NS(=O)(=O)c1ccc2[nH]c(=O)ccc2c1)c1ccccc1`, for which the IC50 on sOGT was 7 µM. With `O=C([C@H](NS(=O)(=O)c1ccc2[nH]c(=O)ccc2c1)c1ccccc1)N1CCN(c2ccccn2)CC1`, the IC50 on sOGT was determined as 10 µM.

Regarding `Cc1ccc(N2CCN(C(=O)[C@H](NS(=O)(=O)c3ccc4[nH]c(=O)ccc4c3)c3ccccc3)CC2)cc1`, on sOGT, the IC50 was determined as 9 µM. The Ki is the dissociation constant of the complex between target and ligand, obtained from inhibition or displacement. At sOGT, `O=C([C@H](NS(=O)(=O)c1ccc2[nH]c(=O)ccc2c1)c1ccccc1)N1CCC(Cc2ccccc2)CC1` yielded a Ki of 2 µM.

In the case of `O=C([C@@H](Cc1ccccc1)NS(=O)(=O)c1ccc2[nH]c(=O)ccc2c1)N(Cc1ccco1)Cc1cccs1` [PG34, (R)—N-(furan-2-ylmethyl)-2-(2-oxo-1,2-dihydroquinoline-6-sulfonamido)-3-phenyl-N-(thiophen-2-ylmethyl)propanamide], the “Effect on cell viability” value in the series with CHO cells was “affected cell viability similarly to OSMI-1”. Also, the Apoptotic signaling result with CHO cells (up to 50 μM) is “Neither compound displayed an effect on apoptotic signaling”. In the series with OGT in CHO cells, the “Effect on global O-GlcNAcylation” value was “no reduction in global O-GlcNAc levels”. Also, on ncOGT (radiometric capture assay), the “In vitro inhibitory activity against OGT” value was “poor in vitro inhibitory activity against OGT”. For the molecule `CC(=O)N[C@@H]1C(OP(=O)(O)OP(=O)(O)OC[C@H]2O[C@@H](n3ccc(=O)[nH]c3=O)[C@H](O)[C@@H]2O)SC(CO)C(O)[C@@H]1O` (some centres unmarked) [UDP-5SGlcNAc, reference compound], the IC50 in series [1] was 78.8 µM; against ncOGT (6 μM UDP-GlcNAc, 18 μM GST-Nup62), 11 µM and 11.1 µM. At ncOGT (non-linear regression, competitive inhibition fit, Nup62 substrate, read-out: Inhibition constant (Ki)), the Ki came out at 5 µM.
